Among the data in patent publication US8486951B2 (Deciphera Pharmaceuticals, LLC, priority 2008, dated 2013) are IC50 values, retold here.

Test [1] has as its target KDR kinase (Seq ID No. 3) (Homo sapiens, UniProt P35968, DEL940-989/E990V). The test can be described thus: KDR Kinase Assay (assays K1, K2, K3). Type of test: biochemical. The settings on record: assay variant K1, K2 or K3 not stated; read-out: KDR Enzyme Assay.
The target of the next test is T1, PDGFRα kinase (Homo sapiens, UniProt P16234).
T1 construct: purchased Invitrogen
The test is described as follows: PDGFRα Kinase Assay. The conditions noted are these: read-out: PDGFRa Enzyme Assay. Type of test: biochemical. The method, then: (§1) Activity of PDGFRα kinase was determined by following the production of ADP from the kinase reaction through coupling with the pyruvate kinase/lactate dehydrogenase system. In this assay, the oxidation of NADH (thus the decrease at A340 nm) was continuously monitored spectrophometrically. The reaction mixture (100 μl) contained PDGFRα (Invitrogen, 10 nM), polyE4Y (1 mg/ml), MgCl2 (10 mM), pyruvate kinase (4 units), lactate dehydrogenase (0.7 units), phosphoenol pyruvate (1 mM) and NADH (0.28 mM) and ATP (500 μM) in a 90 mM Tris buffer containing 0.2% octyl-glucoside and 1% DMSO, pH 7.5. The inhibition reaction was started by mixing serial diluted test compound with the above reaction mixture. The absorption at 340 nm was monitored continuously for 4 hours at 30° C. on a Polarstar Optima or Synergy 2 plate reader. The reaction rate was calculated using the 2 to 3 h time frame. Percent inhibition was obtained by comparison of reaction rate with that of a control (i.e. with no test compound). IC50 values were calculated from a series of percent inhibition values determined at a range of inhibitor concentrations using software routines as implemented in the GraphPad Prism software package.

Another test has as its system EBC-1 cells. The test is described as follows: EBC-1 Cell Proliferation Assay (resazurin). Type of test: cell-based. The settings on record: 67 h + 5 h resazurin, read-out: EBC1 Cell Proliferation. The method, then:
EBC-1 cells (catalog #JCRB0820) were obtained from the Japan Health Science Research Resources Bank, Osaka, Japan. Briefly, cells were grown in DMEM supplemented with 10% characterized fetal bovine serum (Invitrogen, Carlsbad, Calif.) at 37 degrees Celsius, 5% CO2, 95% humidity. Cells were allowed to expand until reaching 70-95% confluency at which point they were subcultured or harvested for assay use.
EBC-1 Cell Proliferation Assay
A serial dilution of test compound was dispensed into a 96-well black clear bottom plate (Corning, Corning, N.Y.). For each cell line, five thousand cells were added per well in 200 μL complete growth medium. Plates were incubated for 67 hours at 37 degrees Celsius, 5% CO2, 95% humidity. […] Data was analyzed using Prism software (Graphpad, San Diego, Calif.) to calculate IC50 values.
In general terms: Alamar Blue is a resazurin reagent that responds to reducing activity.

The target of test [2] is T2, c-KIT kinase (Seq. ID no. 1) (Homo sapiens, UniProt P10721).
T2 construct: purchased ProQinase
The test can be described thus: c-KIT kinase Assay (ADP production, pyruvate kinase/lactate dehydrogenase coupled). The settings on record: read-out: cKIT Enzyme Assay. Type of test: biochemical. On the procedure:
In this assay, the oxidation of NADH (thus the decrease at A340 nm) was continuously monitored spectrophometrically. […] The absorption at 340 nm was monitored continuously for 0.5 hours at 30° C. on Polarstar Optima plate reader (BMG). The reaction rate was calculated using the 0 to 0.5 h time frame. Percent inhibition was obtained by comparison of reaction rate with that of a control (i.e. with no test compound). IC50 values were calculated from a series of percent inhibition values determined at a range of inhibitor concentrations using software routines as implemented in the GraphPad Prism software package.

Test [3] deals with T3, c-MET kinase (Seq. ID no. 2) (Homo sapiens, UniProt P08581).
T3 construct: purchased Invitrogen PV3143
The test can be described thus: c-MET Kinase Assay (ADP production, pyruvate kinase/lactate dehydrogenase coupled). The conditions noted are these: read-out: cMET Enzyme Assay. Type of test: biochemical. The method, then: In this assay, the oxidation of NADH (thus the decrease at A340 nm) was continuously monitored spectrophometrically. […] Test compounds were incubated with C-Met (Seq. ID no. 2) and other reaction reagents at 22° C. for 0.5 h before ATP (100 μM) was added to start the reaction. The absorption at 340 nm was monitored continuously for 2 hours at 30° C. on Polarstar Optima plate reader (BMG). The reaction rate was calculated using the 1.0 to 2.0 h time frame. Percent inhibition was obtained by comparison of reaction rate with that of a control (i.e. with no test compound). IC50 values were calculated from a series of percent inhibition values determined at a range of inhibitor concentrations using software routines as implemented in the GraphPad Prism software package.

For the next test, the target named is T4, PDGFRβ (Homo sapiens, UniProt P09619).
T4 construct: purchased Invitrogen
The test is described as follows: PDGFRβ Kinase Assay. Type of test: biochemical. The conditions noted are these: read-out: PDGFRb Enzyme Assay.

The next test has as its target T5, FMS kinase (Homo sapiens, UniProt P07333).
T5 construct: purchased Invitrogen or Millipore
The test is described as follows: FMS Kinase Assay. The settings on record: read-out: FMS Enzyme Assay. It counts as biochemical. The method, then:
as §1, with “In” for “Activity of PDGFRα kinase was determined by following the production of ADP from the kinase reaction through coupling with the pyruvate kinase/lactate dehydrogenase system. In”, “FMS (purchased from Invitrogen or Millipore, 6” for “PDGFRα (Invitrogen, 10”

The next test deals with T6, phospho-VEGF R2 (Homo sapiens, UniProt P35968).
T6 construct: host or cells: HUVEC
The test is described as follows: HUVEC VEGF/KDR ELISA (phospho-VEGF R2 after VEGF stimulation). The conditions noted are these: 4 h compound, 100 ng/mL VEGF 5 min, read-out: HUVEC pKDR. It counts as cell-based. The method, then:
HUVEC (Human umbilical vein endothelial cell) cells were obtained from Lonza (Lonza, Walkersville, Md.). Briefly, cells were grown in EGM-2 (Lonza, Walkersville, Md.) at 37 degrees Celsius, 5% CO2, 95% humidity. Cells were allowed to expand until reaching 90-95% saturation at which point they were subcultured or harvested for assay use. For assay use, cells were harvested and grown in EGM-2 medium supplemented with 2% FBS (Lonza, Walkersville, Md.).
Twenty-five thousand cells were added per well in a 96-well black clear bottom plate (Corning, Corning, N.Y.). Cells were then incubated overnight at 37 degrees Celsius, 5% CO2, 95% humidity. A serial dilution of test compound was dispensed into another 96-well black clear bottom plate (Corning, Corning, N.Y.) containing EBM-2 supplemented with 2% FBS. Compound was added to plates containing cells and incubated for 4 hours at 37 degrees Celsius, 5% CO2, 95% humidity. Cells were stimulated with 100 ng/mL VEGF (R&D Systems, Minneapolis, Minn.) for 5 minutes, then lysed. Cell lysates were used to detect phospho-VEGF R2 using DuoSet IC HUVEC VEGF/KDR ELISA (R&D Systems, Minneapolis, Minn.). Data was analyzed using Prism software (Graphpad, San Diego, Calif.) to calculate IC50's.
A general note: An ELISA detects its analyte on a solid surface through an enzyme-linked reagent.

Like-named read-outs stand apart in the source and are kept apart here. Bounds are passed on as bounds.

KDR kinase (Seq ID No. 3), sequence (P35968 with tags, fused parts or gaps DEL940-989/E990V): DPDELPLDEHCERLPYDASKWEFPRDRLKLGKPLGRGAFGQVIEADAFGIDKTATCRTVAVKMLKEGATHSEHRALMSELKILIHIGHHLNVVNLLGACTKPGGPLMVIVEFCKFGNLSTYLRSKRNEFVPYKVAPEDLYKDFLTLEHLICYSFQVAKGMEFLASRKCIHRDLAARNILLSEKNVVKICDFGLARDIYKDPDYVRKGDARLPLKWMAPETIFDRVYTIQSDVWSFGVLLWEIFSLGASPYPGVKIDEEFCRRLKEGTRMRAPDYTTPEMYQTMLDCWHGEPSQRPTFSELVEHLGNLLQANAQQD
T5 sequence (P07333 20-972): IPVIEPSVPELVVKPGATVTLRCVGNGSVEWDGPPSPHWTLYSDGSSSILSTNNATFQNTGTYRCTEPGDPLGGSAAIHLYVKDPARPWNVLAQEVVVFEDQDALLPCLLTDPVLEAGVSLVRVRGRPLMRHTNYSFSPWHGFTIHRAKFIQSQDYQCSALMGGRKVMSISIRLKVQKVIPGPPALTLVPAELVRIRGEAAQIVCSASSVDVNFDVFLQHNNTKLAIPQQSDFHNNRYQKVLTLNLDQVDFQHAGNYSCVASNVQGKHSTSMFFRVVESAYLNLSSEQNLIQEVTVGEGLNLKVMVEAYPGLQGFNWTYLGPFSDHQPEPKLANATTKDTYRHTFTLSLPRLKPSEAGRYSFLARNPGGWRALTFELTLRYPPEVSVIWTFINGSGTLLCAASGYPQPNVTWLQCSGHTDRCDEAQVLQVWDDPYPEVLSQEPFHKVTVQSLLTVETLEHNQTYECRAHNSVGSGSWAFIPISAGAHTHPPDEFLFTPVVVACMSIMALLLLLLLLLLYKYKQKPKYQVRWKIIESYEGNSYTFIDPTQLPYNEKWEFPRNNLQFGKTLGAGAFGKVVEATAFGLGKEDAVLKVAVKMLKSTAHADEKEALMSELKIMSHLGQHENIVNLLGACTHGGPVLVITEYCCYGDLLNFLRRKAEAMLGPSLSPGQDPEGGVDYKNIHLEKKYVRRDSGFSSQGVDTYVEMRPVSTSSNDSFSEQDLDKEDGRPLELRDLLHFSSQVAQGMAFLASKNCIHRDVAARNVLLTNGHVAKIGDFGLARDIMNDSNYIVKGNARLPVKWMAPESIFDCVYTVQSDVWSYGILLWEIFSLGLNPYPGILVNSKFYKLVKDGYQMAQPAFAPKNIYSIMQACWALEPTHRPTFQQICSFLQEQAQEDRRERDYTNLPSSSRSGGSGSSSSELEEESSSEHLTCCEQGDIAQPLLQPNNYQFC
T1 sequence (P16234 24-1089): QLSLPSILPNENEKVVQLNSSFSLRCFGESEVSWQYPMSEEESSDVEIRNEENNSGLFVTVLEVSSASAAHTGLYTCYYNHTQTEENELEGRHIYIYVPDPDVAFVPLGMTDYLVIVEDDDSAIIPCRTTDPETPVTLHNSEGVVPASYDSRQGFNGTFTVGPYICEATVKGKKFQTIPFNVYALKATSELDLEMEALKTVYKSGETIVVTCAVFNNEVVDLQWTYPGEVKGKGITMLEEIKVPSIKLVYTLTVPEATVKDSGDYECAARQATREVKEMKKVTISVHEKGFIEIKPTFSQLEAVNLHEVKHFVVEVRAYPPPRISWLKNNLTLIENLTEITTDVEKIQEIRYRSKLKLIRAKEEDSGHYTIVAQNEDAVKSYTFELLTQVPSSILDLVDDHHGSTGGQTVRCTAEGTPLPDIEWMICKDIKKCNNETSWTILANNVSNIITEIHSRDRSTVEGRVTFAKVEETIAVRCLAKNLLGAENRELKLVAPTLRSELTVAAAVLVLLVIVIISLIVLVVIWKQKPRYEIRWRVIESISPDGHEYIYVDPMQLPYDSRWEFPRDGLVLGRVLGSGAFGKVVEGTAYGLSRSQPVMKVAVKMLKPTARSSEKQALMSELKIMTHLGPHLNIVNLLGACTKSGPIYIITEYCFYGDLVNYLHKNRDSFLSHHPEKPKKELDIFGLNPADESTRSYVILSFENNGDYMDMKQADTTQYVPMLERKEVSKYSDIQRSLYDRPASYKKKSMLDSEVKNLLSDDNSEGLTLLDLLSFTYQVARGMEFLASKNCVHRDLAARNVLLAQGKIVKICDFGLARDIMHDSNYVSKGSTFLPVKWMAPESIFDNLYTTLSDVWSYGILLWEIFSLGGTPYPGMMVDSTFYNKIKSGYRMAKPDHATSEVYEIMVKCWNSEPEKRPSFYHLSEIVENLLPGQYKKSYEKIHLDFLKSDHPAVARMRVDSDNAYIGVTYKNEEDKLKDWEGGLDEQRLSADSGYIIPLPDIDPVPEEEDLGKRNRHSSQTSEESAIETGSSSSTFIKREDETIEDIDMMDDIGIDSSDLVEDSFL
T3 sequence (P08581 with tags, fused parts or gaps): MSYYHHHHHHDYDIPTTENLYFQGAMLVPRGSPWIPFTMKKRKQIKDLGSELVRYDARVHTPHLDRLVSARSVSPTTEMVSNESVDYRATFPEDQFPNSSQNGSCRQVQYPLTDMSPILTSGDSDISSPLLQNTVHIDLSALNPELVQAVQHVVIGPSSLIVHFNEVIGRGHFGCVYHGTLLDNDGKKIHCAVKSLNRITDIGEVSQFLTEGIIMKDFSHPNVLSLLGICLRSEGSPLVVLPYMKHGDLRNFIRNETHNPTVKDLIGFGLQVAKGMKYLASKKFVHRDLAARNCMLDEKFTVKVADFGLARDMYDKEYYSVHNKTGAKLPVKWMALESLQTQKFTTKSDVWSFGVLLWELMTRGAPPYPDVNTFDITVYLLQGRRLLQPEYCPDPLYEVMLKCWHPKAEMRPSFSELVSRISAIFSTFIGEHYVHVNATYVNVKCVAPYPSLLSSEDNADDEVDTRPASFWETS
T2 sequence (P10721 with tags, fused parts or gaps): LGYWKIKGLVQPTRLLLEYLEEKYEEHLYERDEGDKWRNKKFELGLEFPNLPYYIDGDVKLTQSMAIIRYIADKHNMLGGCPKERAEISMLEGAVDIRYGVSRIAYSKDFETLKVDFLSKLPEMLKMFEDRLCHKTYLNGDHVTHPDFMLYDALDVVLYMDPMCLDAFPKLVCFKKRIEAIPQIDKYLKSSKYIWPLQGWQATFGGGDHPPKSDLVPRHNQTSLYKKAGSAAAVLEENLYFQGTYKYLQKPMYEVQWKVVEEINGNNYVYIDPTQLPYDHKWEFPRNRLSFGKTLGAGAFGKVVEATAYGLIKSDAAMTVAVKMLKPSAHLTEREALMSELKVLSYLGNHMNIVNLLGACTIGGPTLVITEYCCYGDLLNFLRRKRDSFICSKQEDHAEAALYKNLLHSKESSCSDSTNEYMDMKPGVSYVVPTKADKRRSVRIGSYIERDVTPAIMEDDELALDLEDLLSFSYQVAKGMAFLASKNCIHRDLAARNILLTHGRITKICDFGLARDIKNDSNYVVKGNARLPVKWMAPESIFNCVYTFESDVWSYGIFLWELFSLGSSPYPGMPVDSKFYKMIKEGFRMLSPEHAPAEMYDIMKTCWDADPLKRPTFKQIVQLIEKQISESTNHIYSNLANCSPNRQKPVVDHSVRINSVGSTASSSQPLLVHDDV
T4 sequence (P09619 33-1106): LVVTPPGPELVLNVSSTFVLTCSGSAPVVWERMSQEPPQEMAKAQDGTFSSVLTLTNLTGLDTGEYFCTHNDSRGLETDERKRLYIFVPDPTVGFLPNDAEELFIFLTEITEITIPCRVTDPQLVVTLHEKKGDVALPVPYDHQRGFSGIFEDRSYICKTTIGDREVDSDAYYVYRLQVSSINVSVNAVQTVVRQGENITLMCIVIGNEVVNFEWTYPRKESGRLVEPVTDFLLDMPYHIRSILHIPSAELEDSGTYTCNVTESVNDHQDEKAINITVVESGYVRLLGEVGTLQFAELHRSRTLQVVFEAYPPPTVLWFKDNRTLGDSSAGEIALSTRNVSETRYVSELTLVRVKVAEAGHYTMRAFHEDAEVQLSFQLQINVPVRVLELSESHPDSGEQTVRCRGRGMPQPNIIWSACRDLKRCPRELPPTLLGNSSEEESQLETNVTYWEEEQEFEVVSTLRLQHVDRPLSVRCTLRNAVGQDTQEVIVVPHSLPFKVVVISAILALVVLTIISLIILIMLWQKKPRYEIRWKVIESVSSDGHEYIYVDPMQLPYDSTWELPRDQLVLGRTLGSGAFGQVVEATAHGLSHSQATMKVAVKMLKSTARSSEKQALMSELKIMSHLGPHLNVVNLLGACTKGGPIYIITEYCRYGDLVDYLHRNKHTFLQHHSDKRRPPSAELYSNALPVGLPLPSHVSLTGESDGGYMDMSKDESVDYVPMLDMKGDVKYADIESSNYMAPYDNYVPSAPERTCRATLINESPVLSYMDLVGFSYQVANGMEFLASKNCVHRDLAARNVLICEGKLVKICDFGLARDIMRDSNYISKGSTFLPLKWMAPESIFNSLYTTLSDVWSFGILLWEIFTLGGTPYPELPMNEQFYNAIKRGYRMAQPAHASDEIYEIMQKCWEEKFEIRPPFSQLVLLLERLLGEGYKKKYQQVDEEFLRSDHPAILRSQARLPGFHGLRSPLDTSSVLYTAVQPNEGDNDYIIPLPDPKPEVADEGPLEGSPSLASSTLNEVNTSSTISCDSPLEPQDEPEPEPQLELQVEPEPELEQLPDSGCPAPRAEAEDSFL

As to `Cn1cc(-c2cc(Oc3ccc(NC(=O)C4(C(=O)Nc5ccc(Cl)cc5)CC4)c(F)c3)ccn2)cn1` [Example 22, N-(4-chlorophenyl)-N′-(2-fluoro-4-(2-(1-methyl-1H-pyrazol-4-yl)pyridin-4-yloxy)phenyl)cyclopropane-1,1-dicarboxamide], the IC50 in test [1] is less than 2000 nM; at PDGFRα kinase, less than 2000 nM; in the test with EBC-1 cells (Homo sapiens), less than 2000 nM; in test [2], less than 2000 nM; in test [3], less than 2000 nM; on PDGFRβ, less than 2 µM. Also, on FMS kinase, the IC50 is less than 200 nM.
For `Cn1cc(-c2cc(Oc3ccc(NC(=O)C4(C(=O)Nc5ccc(F)cc5)CC4)c(F)c3)ccn2)cn1` [Example 7, N-(2-fluoro-4-(2-(1-methyl-1H-pyrazol-4-yl)pyridin-4-yloxy)phenyl)-N′-(4-fluorophenyl)cyclopropane-1,1-dicarboxamide], the IC50 in test [1] was less than 2000 nM; at PDGFRα kinase, less than 2000 nM; in the test with EBC-1 cells (Homo sapiens), less than 200 nM; in test [2], less than 10000 nM; on phospho-VEGF R2 it was less than 2000 nM; on PDGFRβ, less than 10 µM. On FMS kinase, the IC50 was less than 200 nM.
Turning to `Cc1cc(NC(=O)C2(C(=O)Nc3ccc(F)cc3)CC2)c(F)cc1Oc1ccnc(-c2cnn(C)c2)c1` [Example 51, N-(2-fluoro-5-methyl-4-(2-(1-methyl-1H-pyrazol-4-yl)pyridin-4-yloxy)phenyl)-N′-(4-fluorophenyl)cyclopropane-1,1-dicarboxamide], the IC50 was less than 2000 nM in test [1]; less than 2000 nM at PDGFRα kinase; less than 2000 nM in the test with EBC-1 cells (Homo sapiens); less than 200 nM in test [2]; less than 200 nM in test [3]; less than 2 µM on PDGFRβ. Further, on FMS kinase, the IC50 was less than 200 nM.
In the case of `Cc1ccc(NC(=O)C2(C(=O)Nc3ccc(Oc4ccnc(-c5cnn(C)c5)c4)cc3F)CC2)cc1` [Example 23, N-(2-fluoro-4-(2-(1-methyl-1H-pyrazol-4-yl)pyridin-4-yloxy)phenyl)-N′-p-tolylcyclopropane-1,1-dicarboxamide], the IC50 in test [1] is less than 10000 nM; on PDGFRα kinase, less than 10000 nM; with EBC-1 cells (Homo sapiens) it was less than 2000 nM; in test [2], less than 10000 nM; in test [3], less than 2000 nM; on PDGFRβ it was less than 10 µM. The IC50 at FMS kinase was less than 2000 nM.
As to `C[C@H](NC(=O)C1(C(=O)Nc2ccc(Oc3ccnc(-c4cnn(C)c4)c3)c(F)c2)CC1)c1ccccc1` [Example 16, N-(3-fluoro-4-(2-(1-methyl-1H-pyrazol-4-yl)pyridin-4-yloxy)phenyl)-N′-((S)-1-phenylethyl)cyclopropane-1,1-dicarboxamide], the IC50 was less than 10000 nM in test [1]; less than 2000 nM at PDGFRα kinase; less than 10000 nM in the test on EBC-1 cells (Homo sapiens); less than 200 nM in test [2]; less than 10 µM on PDGFRβ; less than 200 nM at FMS kinase.
`Cc1nn(C)cc1-c1cc(Oc2cc(F)c(NC(=O)C3(C(=O)Nc4ccc(F)cc4)CC3)cc2F)ccn1` [Example 49, N-(4-(2-(1,3-Dimethyl-1H-pyrazol-4-yl)pyridin-4-yloxy)-2,5-difluorophenyl)-N′-(4-fluorophenyl)cyclopropane-1,1-dicarboxamide]: the IC50 was less than 2000 nM in test [1]; less than 10000 nM on PDGFRα kinase; less than 2000 nM in the test with EBC-1 cells (Homo sapiens); less than 200 nM in test [2]; less than 200 nM in test [3]; less than 10 µM on PDGFRβ. Also, the IC50 at FMS kinase was less than 2000 nM.
Take `Cn1cc(-c2cc(Oc3ccc(NC(=O)C4(C(=O)Nc5cccc(C(F)(F)F)c5)CC4)cc3F)ccn2)cn1` [Example 6, N-(3-fluoro-4-(2-(1-methyl-1H-pyrazol-4-yl)pyridin-4-yloxy)phenyl)-N′-(3-(trifluoromethyl)phenyl)cyclopropane-1,1-dicarboxamide]: the IC50 in test [1] was less than 200 nM; at PDGFRα kinase it was less than 2000 nM; in the test on EBC-1 cells (Homo sapiens) it was less than 10000 nM; in test [2], less than 10000 nM; on PDGFRβ it was less than 10 µM; on FMS kinase, less than 2000 nM.
Take “N-(2,5-difluoro-4-(2-(1-methyl-1H-pyrazol-4-yl)pyridin-4-yloxy)phenyl)-N-(4-fluorophenyl)cyclopropane-1,1-dicarboxamide [Example 40]”: the IC50 in test [1] is less than 200 nM; on PDGFRα kinase, less than 2000 nM; in the test on EBC-1 cells it was less than 200 nM; in test [2], less than 200 nM; in test [3], less than 200 nM; at phospho-VEGF R2, less than 2000 nM. Besides, the IC50 at PDGFRβ is less than 10 µM.
With `Cn1cc(-c2cc(Oc3cc(F)c(NC(=O)NC(=O)Cc4ccc(F)cc4)cc3Cl)ccn2)cn1` [Example 46, 1-(5-chloro-2-fluoro-4-(2-(1-methyl-1H-pyrazol-4-yl)pyridin-4-yloxy)phenyl)-3-(2-(4-fluorophenyl)acetyl)urea], the IC50 in test [1] was less than 2000 nM; on PDGFRα kinase, less than 200 nM; in the test on EBC-1 cells (Homo sapiens), less than 200 nM; in test [2] it was less than 200 nM; in test [3] it was less than 200 nM; at PDGFRβ it was less than 0.2 µM.
With `Cc1c(-c2cc(Oc3cc(F)c(NC(=O)C4(C(=O)Nc5ccc(F)cc5)CC4)cc3F)ccn2)cnn1C` [Example 50, N-(4-(2-(1,5-dimethyl-1H-pyrazol-4-yl)pyridin-4-yloxy)-2,5-difluorophenyl)-N′-(4-fluorophenyl)cyclopropane-1,1-dicarboxamide], the IC50 in test [1] was less than 200 nM; at PDGFRα kinase it was less than 2000 nM; in the test with EBC-1 cells (Homo sapiens) it was less than 200 nM; in test [2], less than 200 nM; in test [3], less than 200 nM; at PDGFRβ it was less than 10 µM.
